# From PMC11378298 (ACS Chemical Neuroscience, 2024)
# Experiments:
# [1] = molecular target: GSK-3β (Homo sapiens, UniProt P49841); assay: biochemical; settings: read-out: increase of the melting point of the protein
# Description: We evaluated the pharmacological properties of the compounds in vitro against GSK-3β using the GSK-3β Kinase Enzyme System followed by ADP-Glo bioluminescent assay.[50] The principle of the assay is to determine the amount of ADP formed from ATP in the kinase reaction. […] Additionally, compounds 11 and 36 in complex with GSK-3β were analyzed by the proteins’ melting temperature determination using Thermal Shift Assay (see Figure S1 in the SI).
# [2] = Cytotoxicity in HT-22 cells (PrestoBlue); settings: mouse, HT-22 hippocampal neuronal cells
# Description: The compounds were tested at 5 concentrations (0.1, 1, 10, 50, and 100 μM).
# Mouse Hippocampal Neuronal Cell Line (HT-22) was a generous gift from Dr Bartosz Pomierny of the Department of Biochemical Toxicology, Jagiellonian University Medical College, Krakow, Poland. Cells were cultured in Dulbecco’s modified Eagle’s Medium—high glucose (DMEM, Glutamax Thermo Fisher) supplemented with 10% heat-inactivated fetal bovine serum (Thermo Fisher), 100 IU/mL penicillin (Merck) and 100 μg/mL streptomycin (Merck). Cells were cultured in flasks (area 175 cm^2, Nunc), and incubated at 37 °C, 5% CO2. For the measurement of cell viability and neuroprotective effect against okadaic acid cells were placed in a 96-well culture plate (2 × 10^4 cells per well, Falcon). Before the tests, cells were grown for 24 h in the incubator (37 °C, 5% CO2).
# Cell viability was evaluated using the PrestoBlue reagent (ThermoFisher), according to the manufacturer’s procedures.[87] Following 24 h of incubation with the tested molecule, PrestoBlue reagent was added to a microplate well in an amount equal to one-tenth of the remaining medium volume. The resulting mixture was incubated for 15 min at 37 °C, and the fluorescence intensity (EX 530 nm; EM 580 nm) was measured in the plate reader POLARstar Omega, (BMG Labtech).
# [3] = system: HT-22 cells; assay: Okadaic acid-induced hyperphosphorylation model, cell viability; type: cell-based, mouse; settings: for increase in cells' viability after okadaic acid: okadaic acid 400 nM 3 h, viability after 24 h
# Description: Thus, it is used in a cell model of hyperphosphorylated tau-induced neurodegeneration.[53],[54] […] The test was performed on the HT-22 cell line treated with okadaic acid at the concentration of 400 nM and the compounds at the concentration of 0.1, 1, and 10 μM. Cell viability was measured by the PrestoBlue cell viability reagent.
# Cell viability was determined by Presto Blue assay after 24 h. (B) Effect of compounds 11, 34, and 36 (0.1, 1, 10 μM) on NO-release (%) in LPS-treated (100 ng/mL) BV-2 cell line. NO-release was measured using a fluorometric assay with 2,3-diaminonaphthalene (DAN). (C, D) Effects of compounds 11 and 36 (0.1, 1, 10 μM) on IL-6 and TNF-α release in LPS-treated (100 ng/mL) BV-2 cell line. The IL-6 and TNF-α levels were measured using LANCE Ultra TR-FRET Detection Kit (PerkinElmer). Statistical analysis was performed using GraphPad Prism 9.0.0. All values are expressed as mean with SD. Differences among groups were evaluated by one-way ANOVA followed by posthoc analysis (Dunnett’s multiple comparison tests) vs. control group (LPS on BV-2 cells and okadaic acid on HT-22 cells) and were considered statistically significant if p < 0.05 (*p < 0.05, **p < 0.01, ***p < 0.001, and ****p < 0.0001).
# HT-22 cells were treated with okadaic acid (Merck): 400 nM for 3 h. After this time, the 10, 1, and 0.1 μM of tested compounds or DMSO were added and incubated in the aseptic condition (37 °C, 5% CO2). Cell viability was determined by Presto Blue assay after 24 h.
# [4] = molecular target: CYP2C9 (Homo sapiens, UniProt P11712); settings: for CYP2C9 activity at 0.1 µM / CYP2C9 activity at 1 µM / CYP2C9 activity at 10 µM / CYP2C9 activity at 25 µM: ± SD
# Description: (§1) Interactions with cytochrome enzymes are significant contributors to drug–drug interactions (DDIs), a crucial concern for patients who are on multiple medications. We determined the compounds’ influence on the most important CYP isoforms 3A4, 2D6, and 2C9, using the CYP450 inhibition luminescence assay from Promega (for details see Figures S23–S25 and Table S11 in the SI).
# (§2) All protocols used for the evaluation of drug-like properties (ADME-To parameters) were described in our previous works.[58],[89] Precoated PAMPA Plate System Gentest was obtained from Corning, (Tewksbury, MA, USA). The metabolic stability assay was performed on human liver microsomes (HLMs, Sigma-Aldrich, St. Louis, MO, USA). The assays with microsomes were supported by MetaSite 6.0.1 software (Molecular Discovery Ltd. Hertfordshire, UK). To predict potential drug–drug interactions (DDIs) the influence on CYP3A4, CYP2D6, and CYP2C9 were carried with use of respective P450-Glo kit (Promega, Madison, WI, USA). The luminescence signal and absorbance were measured by using a microplate reader EnSpire PerkinElmer (Waltham, MA, USA). The LC/MS/MS analyses used in PAMPA and the assays with use of HLMs were obtained on Waters ACQUITY TQD system (Waters, Milford, CT, USA). […] Statistical significances and IC50 values were calculated by Graph Pad Prism 9 software. […]
# [5] = molecular target: CYP2D6 (Homo sapiens, UniProt P10635); settings: for CYP2D6 activity at 0.1 µM / CYP2D6 activity at 1 µM / CYP2D6 activity at 10 µM / CYP2D6 activity at 25 µM: ± SD
# Description: as §1, §2
# [6] = molecular target: CYP3A4 (Homo sapiens, UniProt P08684); settings: for CYP3A4 activity at 0.1 µM / CYP3A4 activity at 1 µM / CYP3A4 activity at 10 µM / CYP3A4 activity at 25 µM: ± SD
# Description: as §1, §2
# [7] = in vitro; settings: PAMPA
# Sequence of CYP2C9 (P11712 whole entry, canonical isoform): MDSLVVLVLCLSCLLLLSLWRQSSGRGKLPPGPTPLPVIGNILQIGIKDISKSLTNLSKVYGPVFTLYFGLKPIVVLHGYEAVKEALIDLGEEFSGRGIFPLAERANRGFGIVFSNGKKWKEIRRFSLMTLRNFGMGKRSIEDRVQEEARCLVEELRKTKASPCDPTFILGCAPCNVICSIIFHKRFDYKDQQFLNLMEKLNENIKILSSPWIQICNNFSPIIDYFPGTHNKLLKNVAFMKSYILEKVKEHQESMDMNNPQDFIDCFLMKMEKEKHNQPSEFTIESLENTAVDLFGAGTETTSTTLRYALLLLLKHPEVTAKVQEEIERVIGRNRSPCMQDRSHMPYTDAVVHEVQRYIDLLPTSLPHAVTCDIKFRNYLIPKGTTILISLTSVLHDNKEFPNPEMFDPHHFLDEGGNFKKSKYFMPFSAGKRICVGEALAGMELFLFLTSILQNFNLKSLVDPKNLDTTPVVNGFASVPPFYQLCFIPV
# Sequence of CYP3A4 (P08684 whole entry): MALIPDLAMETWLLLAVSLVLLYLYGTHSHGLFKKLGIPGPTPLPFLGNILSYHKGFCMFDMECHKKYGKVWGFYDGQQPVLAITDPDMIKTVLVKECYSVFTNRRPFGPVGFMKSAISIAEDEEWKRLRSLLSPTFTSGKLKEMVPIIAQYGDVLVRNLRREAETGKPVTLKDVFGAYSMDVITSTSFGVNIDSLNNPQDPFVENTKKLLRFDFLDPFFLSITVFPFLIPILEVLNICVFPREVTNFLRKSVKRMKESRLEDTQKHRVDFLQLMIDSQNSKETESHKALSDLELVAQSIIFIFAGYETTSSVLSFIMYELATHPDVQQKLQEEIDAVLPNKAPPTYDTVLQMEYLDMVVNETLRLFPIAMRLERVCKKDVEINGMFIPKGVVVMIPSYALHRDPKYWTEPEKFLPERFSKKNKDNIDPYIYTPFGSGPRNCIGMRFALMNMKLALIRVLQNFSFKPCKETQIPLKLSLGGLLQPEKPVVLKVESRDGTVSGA
# Sequence of CYP2D6 (P10635 whole entry): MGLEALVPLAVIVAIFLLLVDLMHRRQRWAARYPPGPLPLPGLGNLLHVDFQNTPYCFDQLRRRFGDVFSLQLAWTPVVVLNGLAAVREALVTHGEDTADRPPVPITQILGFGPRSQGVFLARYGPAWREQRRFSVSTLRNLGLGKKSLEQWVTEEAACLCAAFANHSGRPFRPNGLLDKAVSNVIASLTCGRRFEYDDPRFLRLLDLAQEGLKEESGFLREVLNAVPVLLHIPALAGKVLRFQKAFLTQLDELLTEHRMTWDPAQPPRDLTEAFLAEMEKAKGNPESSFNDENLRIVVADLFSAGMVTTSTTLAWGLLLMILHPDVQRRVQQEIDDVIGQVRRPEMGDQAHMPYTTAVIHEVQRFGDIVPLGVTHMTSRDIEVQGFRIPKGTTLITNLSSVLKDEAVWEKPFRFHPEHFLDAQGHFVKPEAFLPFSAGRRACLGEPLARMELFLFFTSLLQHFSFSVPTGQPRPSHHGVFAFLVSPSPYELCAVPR
# Sequence of GSK-3β (P49841 26-383): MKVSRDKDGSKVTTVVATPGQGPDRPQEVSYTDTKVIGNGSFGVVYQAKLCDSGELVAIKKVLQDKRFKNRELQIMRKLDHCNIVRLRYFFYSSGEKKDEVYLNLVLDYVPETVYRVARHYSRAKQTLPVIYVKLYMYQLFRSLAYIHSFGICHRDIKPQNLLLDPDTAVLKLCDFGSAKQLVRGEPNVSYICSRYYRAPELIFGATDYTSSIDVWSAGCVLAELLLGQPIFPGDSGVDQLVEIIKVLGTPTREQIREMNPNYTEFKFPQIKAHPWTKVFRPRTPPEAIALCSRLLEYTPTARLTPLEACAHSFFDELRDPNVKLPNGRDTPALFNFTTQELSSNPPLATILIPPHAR
Structure (SMILES),ΔTm at 10 µM [1] [°C],IC50 at 24 h [2] [µM],increase in cells' viability after okadaic acid ([3]; compound 10 μM),effect on CYP2C9 [4],CYP2C9 activity at 0.1 µM [4],CYP2C9 activity at 1 µM [4],CYP2C9 activity at 10 µM [4],CYP2C9 activity at 25 µM [4],CYP2D6 activity at 0.1 µM [5],CYP2D6 activity at 1 µM [5],CYP2D6 activity at 10 µM [5],CYP2D6 activity at 25 µM [5],effect on CYP3A4 [6],CYP3A4 activity at 0.1 µM [6],CYP3A4 activity at 1 µM [6],CYP3A4 activity at 10 µM [6],CYP3A4 activity at 25 µM [6],Papp [7] [×10⁻⁶ cm/s],other results
"NC(=O)N1CC=C(c2ccnc(NC(=O)C3CC3)c2)C1 [Compound 11, 3-(2-(Cyclopropanecarboxamido)pyridin-4-yl)-2,5-dihydro-1H-pyrrole-1-carboxamide]",13,45.8 ± 9.7,statistically significant effect,inhibitory effect,103.9 ± 7.0 % of control,105.2 ± 7.4 % of control,89.8 ± 4.7 % of control,69.7 ±3.04 % of control,91.2 ± 1.7 % of control,93.0 ± 6.0 % of control,95.2 ± 6.2 % of control,97.4 ± 14.8 % of control,inhibitory effect,103.8 ± 5.9 % of control,100.1 ± 17.6 % of control,94.2 ± 17.5 % of control,76.4 ± 2.9 % of control,0.53 ± 0.82,increase in cells' viability after okadaic acid ([3]; compound 1 μM): statistically significant effect; effect on CYP2D6 ([5]; any tested concentration): no effect
"O=C(Nc1cc(-c2ccc(-c3ncon3)s2)ccn1)C1CC1 [Compound 36, N-(4-(5-(1,2,4-Oxadiazol-3-yl)thiophen-2-yl)pyridin-2-yl)cyclopropanecarboxamide]",14,> 100,statistically significant effect,inhibitory effect,109.5 ± 17.0 % of control,114.1 ± 14.9 % of control,95.2 ± 7.5 % of control,59.8 ± 11.5 % of control,98.4 ± 10.8 % of control,98.1 ± 12.7 % of control,100.4 ± 20.8 % of control,102.8 ± 15.0 % of control,inhibitory effect,104.8 ± 3.4 % of control,103.6 ± 11.0 % of control,84.6 ± 15.1 % of control,65.3 ± 11.9 % of control,9.4 ± 0.89,cell viability after okadaic acid treatment ([3]; concentration not stated): restored cell viability; interactions with CYP isoform 2C9 ([4]; up to 25 μM): lacked significant interactions
